{
  "source": "patent US20140315809A1",
  "about": "“CALCIMIMETICS AND METHODS FOR THEIR USE” (KAI PHARMACEUTICALS INC., priority 2011, published 2014)",
  "assay_type_in_all_cases": "in vivo, rat",
  "key": {"[1]": {"tested_on": "adenine-induced model of chronic renal failure in rats", "assay": "PTH suppression in adenine-induced chronic renal failure", "conditions": "uremic rats, 0.3 or 1 mg/kg SC daily for 2 and 4 weeks", "protocol": "(§1) The therapeutic efficacy Ac-c(C)rrarar-NH2, (SEQ ID NO:28) was assessed using an adenine-induced model of chronic renal failure in rats. The rats were obtained from Charles River Laboratories (Wilmington, Mass.). The rats were fed a low protein (2.5%), high phosphorus (0.92%) diet containing 0.75% adenine (Teklad Custom Diet). Animals were randomly assigned to receive daily subcutaneous doses of vehicle (10 mM succinic acid, 0.85% NaCl, 0.9% benzyl alcohol, pH 4.5) or Ac-c(C)rrarar-NH2 (SEQ ID NO:28) at 0.3 or 1 mg/kg (SC) for 4 weeks. A control group was fed the identical high phosphorus diet and tissues without adenine. Treatment was initiated at the start of diet. All experimental procedures with animals were performed according to IACUC guidelines. Statistical analysis was performed using one-way ANOVA with Bonferroni post test. All p-values are nominal.\nPlasma PTH was measured using the Immunotopics BioActive Intact ELISA (Immutopics, San Clemente, Calif.). Prior to dosing with Ac-c(C)rrarar-NH2 (SEQ ID NO:28), all treatment groups had similar plasma PTH levels. The no-adenine-control animals maintained consistent plasma PTH levels over the 4 week study."}, "[2]": {"tested_on": "adenine-induced model of chronic renal failure in rats", "assay": "Creatinine suppression in adenine-induced chronic renal failure", "conditions": "4 weeks", "protocol": "as §1\nSerum creatinine was measured using QuantiChrom™ kit (BioAssay Systems, Hayward, Calif.). Serum creatinine levels from vehicle-treated uremic animals were approximately 8-10 fold higher compared to the control group of non-uremic animals at the end of the 4 weeks. […] Uremic animals treated with Ac-c(C)rrarar-NH2 (SEQ ID NO:28) at a dose of 1 mg/kg Ac-c(C)rrarar-NH2 (SEQ ID NO:28) had approximately 50% lower serum creatinine levels compared with vehicle-treated controls."}, "[3]": {"tested_on": "adenine-induced model of chronic renal failure in rats", "assay": "Serum phosphorus, calcium and calcium-phosphorus product in adenine-induced chronic renal failure", "conditions": "uremic rats", "protocol": "as §1\nPhosphorus and calcium were determined using a Cobas c-501 analyzer."}, "[4]": {"tested_on": "adenine-induced model of chronic renal failure in rats", "assay": "Parathyroid gland weight in adenine-induced chronic renal failure", "conditions": "0.3 or 1 mg/kg SC daily for 4 weeks", "protocol": "as §1\nThe effects of Ac-c(C)rrarar-NH2 (SEQ ID NO:28) treatment on parathyroid gland enlargement was also determined using the adenine-induced rat model of chronic renal failure. After treatment with Ac-c(C)rrarar-NH2 (SEQ ID NO:28) at doses of 0.3 or 1 mg/kg for 4 weeks, the uremic rats were sacrificed and the parathyroid glands were removed, trimmed and weighed."}, "[5]": {"tested_on": "adenine-induced model of chronic renal failure in rats", "assay": "Vascular calcification (Alizarin Red, von Kossa) in adenine-induced chronic renal failure", "conditions": "uremic rats", "protocol": "as §1\nThe effects of Ac-c(C)rrarar-NH2 (SEQ ID NO:28) treatment of vascular calcification was also determined using adenine-induced rat model of chronic renal failure. After treatment with Ac-c(C)rrarar-NH2 (SEQ ID NO:28) at doses of 0.3 or 1 mg/kg for 4 weeks, the uremic rats were sacrificed and aortic tissue was analyzed. Aortic tissue was processed and stained by Alizarin Red and von Kossa methods to visualize vascular mineralization. Using a scoring system from 0-5, identical sections of von Kossa-stained aorta from all animals were scored in a blinded fashion."}, "[6]": {"conditions": "0.3 and 1 mg/kg SC daily for 4 weeks"}, "[7]": {"conditions": "0.3 or 1 mg/kg SC daily for 4 weeks"}},
  "data": [
    {"substance": "Ac-c(C)rrarar-NH2", "values": [
      {"measurement": "plasma PTH versus vehicle-treated animals", "setting": "[1]", "value": "significantly lower"},
      {"measurement": "serum creatinine levels versus vehicle-treated uremic rats", "setting": "[2]; 0.3 and 1 mg/kg SC daily", "value": "significantly lower"},
      {"measurement": "lower serum creatinine levels compared with vehicle-treated controls", "setting": "[2]; uremic rats, 1 mg/kg SC daily", "value": "approximately 50%"},
      {"measurement": "reduction in serum calcium-phosphorus product", "setting": "[3]; 0.3 mg/kg SC daily for 4 weeks", "value": "~20", "unit": "%"},
      {"measurement": "reduction in serum calcium-phosphorus product", "setting": "[3]; 1 mg/kg SC daily for 4 weeks", "value": "~40", "unit": "%"},
      {"measurement": "serum calcium compared to vehicle-treated rats", "setting": "[3]; [6]", "value": "significant dose-dependent reduction"},
      {"measurement": "serum phosphorus levels", "setting": "[3]; [6]", "value": "significant reduction"},
      {"measurement": "parathyroid gland weight compared to non-uremic animals", "setting": "[4]", "value": "not significantly different in weight"},
      {"measurement": "parathyroid gland weight compared to vehicle group", "setting": "[4]; uremic rats", "value": "significantly reduced in weight"},
      {"measurement": "animals showing aortic mineralization", "setting": "[5]; 0.3 mg/kg treatment group, 4 weeks", "value": "Only one animal"},
      {"measurement": "aortic mineralization, Alizarin Red and Von Kossa staining", "setting": "[5]; [7]", "value": "little or no mineralization"},
      {"measurement": "von Kossa staining of aorta", "setting": "[5]; [7]", "value": "no appreciable von Kossa staining"}
    ]}
  ]
}
